Data on three compounds can be found in PMC10610311, “Eugenol: In Vitro and In Ovo Assessment to Explore Cytotoxic Effects on Osteosarcoma and Oropharyngeal Cancer Cells” (Plants, 2023).

As usually defined, the viability is a per cent measure of how many cells are alive, often set against a control.

One data set has as its system keratinocytes (HaCaT). The conditions noted are these: cited from earlier work.
For data set [1], the system named is SAOS-2 cells. On the set-up: method as in PMID 26929741. The settings on record: SAOS-2, 100 μM; cited from earlier work.
Data set [2] has as its system tongue squamous carcinoma cells (SCC4). On the set-up: method as in PMID 36675971. The settings on record: SCC4, Eug between 0.1 and 1 mM; cited from earlier work.
Data set [3] concerns SAOS-2 (human osteosarcoma cells). Nature of the data set: MTT cell viability assay, SAOS-2. The class given is cell-based. The conditions noted are these: 72 h, read-out: cell viability (normalized to control). On the procedure: (§1) The present study was performed on two human cancer cell lines—SAOS-2 (osteosarcoma cells) and Detroit-562 (oropharynx squamous carcinoma cells), respectively, which were received from ATCC in the form of frozen vials. SAOS-2 cells were cultured in DMEM, while Detroit-562 cells were cultured using EMEM. Both media contained 10% FCS and 1% penicillin (100 U/mL)–streptomycin (100 μg/mL) mixture. Over the course of the experiments, the cells were incubated at 37 °C and 5% CO2.
(§2) A colorimetric approach—the MTT [[…])-2,5-diphenyltetrazolium bromide] assay, was used to determine cell viability. This was accomplished by cultivating the cells in 96-well plates at a density of 1x10^4 cells per well. Upon achieving a confluence of approximately 90%, the cells were stimulated for 72 h with five concentrations of Eug (0.1; 0.25; 0.5; 0.75 and 1 mM). The Eug solutions were prepared by diluting stock solution in culture medium. After this time interval, 10 μL of MTT reagent was added to each well, and the cells were incubated for three hours at 37 °C. To solubilize the MTT formazan crystals, 100 μL of solubilizer were added to each well, and after 30 min, the absorbance was measured at 570 nm using Cytation 5 (BioTek Instruments Inc., Winooski, VT, USA).
(Tetrazolium dyes change colour on reduction, which living cells bring about.)

For data set [4], the system named is colorectal carcinoma cells (HCT-116). More on the design: method as in doi:10.31925/farmacia.2023.2.8. The settings on record: HCT-116, Eug between 0.1 and 1 mM; cited from earlier work.
In data set [5] the test system is Detroit-562 cells. The experiment in a line: RealTime-Glo Annexin V Apoptosis and Necrosis Assay, Detroit-562. The data set is classed as cell-based, human. The settings on record: Detroit-562, Eug 0.5 mM, 0-72 h. Here is the method: (§3) To confirm the apoptotic effect of Eug 0.5 mM in Saos-2 and Detroit-562 cells, the RealTime-Glo™ Annexin V Apoptosis and Necrosis Assay was performed according to the manufacturer’s protocol. In brief, the cells were cultured in solid white bottom 96-well plates (Costar® 3917) and treated with Eug. The prepared 2X Detection Reagent that contained Annexin V NanoBiT™ Substrate, Annexin V-SmBiT, Annexin V-LgBiT, CaCl2, and Necrosis Detection Reagent was added in each well and the plates were shaken for 30 s at 500 rpm. The luminescence and fluorescence (excitation 485 ± 20 nm, and emission 525 ± 30 nm) were recorded at different time points (0, 6, 12, 24, 48, and 72 h post-treatment) using Cytation 5. Background signals (from no-cell wells) that were subtracted from the wells that contained cells.

In data set [6] the test system is Detroit-562 (oropharynx squamous carcinoma cells). The experiment in a line: MTT cell viability assay, Detroit-562. The class given is cell-based. The settings on record: Homo sapiens, 72 h, read-out: cell viability (normalized to control). On the procedure: as §1, §2
The subject of data set [7] is Bax, Bad, Bcl-2 mRNA in SAOS-2 cells. The experiment in a line: RT-PCR expression of apoptosis-related genes, SAOS-2. The data set is classed as cell-based, human. The settings on record: SAOS-2, Eug 0.5 mM, 72 h, normalized to 18S. Here is the method: (§4) To investigate the potential cell-death mechanism induced by Eug 0.5 mM in SAOS-2 and Detroit-562 cells, the expression of pro-apoptotic (Bax, Bad) and anti-apoptotic (Bcl-2) markers was evaluated using the real-time reverse transcription–polymerase chain reaction (RT-PCR) technique after 72 h of treatment. RNA extraction was performed using the Quick-RNA Miniprep Kit (Zymo Research, Irvine, CA, USA), and the amount of extracted RNA was measured with the DS-11 spectrophotometer (DeNovix, Wilmington, DE, USA). The cDNA was produced using the Maxima® First Strand cDNA Synthesis Kit, and the RT-qPCR quantification was performed using a Quant Studio 5 real-time PCR system (Thermo Fisher Scientific, Inc., Waltham, MA, USA) and Power SYBR-Green PCR Master Mix (Thermo Fisher Scientific, Inc., Waltham, MA, USA).

Data set [8] relates to SAOS-2 cells. Nature of the data set: Cellular morphology evaluation (bright field), SAOS-2. The conditions noted are these: SAOS-2, concentrations higher than 0.1 mM, 72 h. The data set is classed as cell-based, human. Here is the method:
(§5) As a means of determining the impact of Eug on the morphology of cells, the microscopic evaluation of SAOS-2 and Detroit-562 cells was carried out after exposure for 72 h. The changes were observed under bright field illumination with the help of the Olympus IX73 inverted microscope (Olympus, Tokyo, Japan), and the processing of the images for the purpose of analysis was carried out by means of CellSens Dimensions v.17 Software (Olympus, Tokyo, Japan).

Data set [9] relates to caspases 3/7, 8, and 9 in SAOS-2 cells. Nature of the data set: Caspase-Glo caspase-3/7, -8, -9 activity, SAOS-2. The class given is cell-based, human. The conditions noted are these: SAOS-2, Eug 0.5 mM, 72 h. Here is the method: (§6) The activity of caspases 3/7, 8, and 9 was determined after the SAOS-2 and Detroit-562 cells’ 72 h treatment with Eug 0.5 mM, using the Caspase-Glo Kit provided by Promega, Madison, WI, USA. The plates were first equilibrated at room temperature for 30 min, then, the Caspase-Glo reagent (100 μL/well) was added. The plates were shaken for 30 s on a plate shaker and maintained at room temperature for another 2 h. Finally, the luminescence was measured on Cytation 5 (BioTek Instruments Inc., Winooski, VT, USA).

Data set [10] concerns Bax, Bad, Bcl-2 mRNA in Detroit-562 cells. The experiment in a line: RT-PCR expression of apoptosis-related genes, Detroit-562. The data set is classed as cell-based, human. The conditions noted are these: Detroit-562, Eug 0.5 mM, 72 h, normalized to 18S. Here is the method:
as §4

Data set [11] deals with Detroit-562 cells. Nature of the data set: Cellular morphology evaluation (bright field), Detroit-562. The class given is cell-based, human. The conditions noted are these: Detroit-562, Eug 0.1 mM, 72 h, vs control. Here is the method:
as §5

The test system of data set [12] is gingival fibroblasts (HGF). On the set-up: method as in PMID 36675971, doi:10.31925/farmacia.2023.2.8. The conditions noted are these: same concentration and time interval as current study; cited from earlier work.
In data set [13] the test system is chorioallantoic membrane of hen's eggs. Nature of the data set: Hen's Egg Test - Chorioallantoic Membrane (HET-CAM). The data set is classed as in vivo, Gallus gallus domesticus. On the set-up: key to IS (irritation score): IS = 5×(301−H)/300 + 7×(301−L)/300 + 9×(301−C)/300; tH, time at which hemorrhage was established / tL, time at which vascular lysis was established / tC, time at which intravascular coagulation was established: unit not given here. The settings on record: Eug 1 mM / SDS 1%, monitored 5 min; for IS (irritation score): 600 µL on CAM. On the procedure: The irritant and toxic potential of Eug (1 mM) at the vascular level was assessed by performing the HET-CAM assay, as previously described. In brief, several steps were followed: […] (ii) on day 4 after incubation, a perforation was made in each egg to extract 6 to 7 mL of albumen; (iii) on the next day of incubation, a window was cut in the upper part of the eggs to facilitate the visualization of the blood vessels, and was covered using adhesive tape; (iv) on day 10 of incubation, 600 µL of each sample (negative control—H2O, positive control—SDS 1%, and Eug 1 mM) were added to the chorioallantoic membrane; (v) the compounds’ ability to produce hemorrhage (H), vascular lysis (L), and coagulation was monitored for 5 min, taking photos (using the Discovery 8 Stereomicroscope from Zeiss, Göttingen, Germany and the Zeiss Axio CAM 105 color camera) prior to the addition of the samples (T0) and at the end of the 5 min period (T5); and (vi) the irritation score (IS) was finally determined for each sample, according to the following formula: IS=5×301−H/300+7×301−L/300+9×301−C/300, where IS = irritation score, H—the time at which the hemorrhage was observed, L—the time at which vascular lysis occurred and C—the time at which intravascular coagulation was established.

In data set [14] the test system is caspases 3/7, 8, and 9 in Detroit-562 cells. The experiment in a line: Caspase-Glo caspase-3/7, -8, -9 activity, Detroit-562. The class given is cell-based, human. The conditions noted are these: Detroit-562, Eug 0.5 mM, 72 h. On the procedure:
as §6

Data set [15] deals with SAOS-2 cells. Nature of the data set: RealTime-Glo Annexin V Apoptosis and Necrosis Assay, SAOS-2. The settings on record: SAOS-2, Eug 0.5 mM, 0-72 h. The class given is cell-based, human. On the procedure:
as §3

Data set [16] has as its system Detroit-562 cells. The experiment in a line: DAPI nuclear morphology / apoptotic index, Detroit-562. The conditions noted are these: 72 h. The class given is cell-based, human. Here is the method: (§7) Using immunofluorescence, it was possible to provide further details regarding Eug’s effects on osteosarcoma and oropharynx squamous carcinoma nuclei. The technique was performed for cells stimulated with Eug 0.5 and 1 mM for 72 h. The applied protocol assumed the following stages: (i) culturing the cells in 12-well plates and stimulating them after reaching the desired confluence with Eug 0.5 and 1 mM for 72 h; (ii) washing with PBS and fixing the cells with 4% paraformaldehyde; (iii) permeabilization with Triton X 0.2%; (iv) blocking the permeabilization with a FCS solution in Triton X 0.01%; and (v) adding DAPI for 15 min. The pictures were then taken with Cytation 1 and processed using Gen5™ Micro-plate Data Collection and Analysis Software v. 3.12 (BioTek® Instruments Inc., Winooski, VT, USA). For a quantitative analysis of the Eug impact at the cellular level, the cell apoptosis index (AI) was calculated using the previously described formula [76]: AI=Number of apoptotic cells/Total number of cells×100
(§8) In accordance with the published protocols, the nuclear morphology was evaluated using ImageJ software v.6 [77].

Data set [17] has as its system SAOS-2 cells. Nature of the data set: DAPI nuclear morphology / apoptotic index, SAOS-2. The conditions noted are these: 72 h. The data set is classed as cell-based, human. On the procedure:
as §7, §8

The mark [18] stands for this setting: Detroit-562, Eug 0.5 and 1 mM, vs control.
Setting [19] is: SAOS-2, Eug 0.5 and 1 mM, vs control.

Regarding `CN(Cc1cnc2nc(N)nc(N)c2n1)c1ccc(C(=O)N[C@@H](CCC(=O)O)C(=O)O)cc1` [methotrexate, reference compound], the “cell viability (in words)” value in the data set with keratinocytes (HaCaT) (non-tumor cells HaCaT, methotrexate more pronounced) is recorded as “reduced cell viability in a dose-dependent manner”. In addition, the cell viability entry with SAOS-2 cells [1] is listed as “below 20%”.

For the compound `C=CCc1ccc(O)c(OC)c1` [Eug, 4-alil-2-metoxifenol], in data set [2], the “cell viability (in words)” value is “dose-dependent decrease”. For the same compound, the “decrease in cell viability” value is given as at most 70% in the data set on keratinocytes (HaCaT) (HaCaT, same concentration and time interval as current study); “up to 34%” in data set [4]; at most 70% in data set [12]. Moreover, the viability at 100 µM came to 92% in data set [3] (SAOS-2, Eug 0.1 mM) and 89% in [6] (Detroit-562, Eug 0.1 mM). Besides, the viability at 1000 µM was 41% in data set [3] (SAOS-2, Eug 1 mM) and 37% in data set [6] (Detroit-562, Eug 1 mM). The “luminescence signal (phosphatidylserine externalization), preceding the fluorescence increase” value with Detroit-562 cells [5] and in the data set with SAOS-2 cells [15] was “time-dependent increase” in each case. For the same compound, the “expression of anti-apoptotic marker Bcl-2 (mRNA)” value in data set [7] and in data set [10] was “decreasing” throughout. Moreover, the “expression of pro-apoptotic marker Bad (mRNA)” value in data set [7] and in data set [10] was “significantly increasing” in each case. Further, the “expression of pro-apoptotic marker Bax (mRNA)” value in data set [7] and in data set [10] was “significantly increasing” in each case. For the same compound, in the data set with SAOS-2 cells [8], the “impact on cellular shape and confluence” value was “significant impact”. Also, the “activation of caspase 3/7” value in data set [9] and in data set [14] was “significant increase” throughout. For the same compound, the “activation of caspase 8” value in data set [9] and in data set [14] was “significant increase” in each case. For the same compound, the “activation of caspase 9” value in data set [9] and in [14] was “significant increase” in each case. Further, the “changes in aspect or confluence of cells” value in the data set on Detroit-562 cells [11] is “no significant changes”. Also, in [13], the “IS (irritation score)” value was determined as 1.69. Also, the “tC, time at which intravascular coagulation was established” value in data set [13] is listed as 263. Also, the “tH, time at which hemorrhage was established” value in [13] was found to be 300. The “tL, time at which vascular lysis was established” value in [13] is 278. For the same compound, the “apoptotic index (AI)” value in the data set with Detroit-562 cells [16] (Detroit-562, Eug 0.5 mM, DAPI) is 30%; in the data set on SAOS-2 cells [17] (SAOS-2, Eug 0.5 mM, DAPI), 25%. The nucleus area entry in the data set with Detroit-562 cells [16] (setting [18]) and with SAOS-2 cells [17] (setting [19]) was “decreased significantly” throughout. For the same compound, the nucleus circumference result in the data set with Detroit-562 cells [16] (setting [18]) and in the data set on SAOS-2 cells [17] (setting [19]) was “decreased significantly” each time.

Regarding `CCCCCCCCCCCCOS(=O)(=O)[O-].[Na+]` [SDS, sodium dodecyl sulfate, reference compound], in [13], the “IS (irritation score)” value is on record as 19.87; the “tC, time at which intravascular coagulation was established” value was 15; the “tH, time at which hemorrhage was established” value is reported as 21; the “tL, time at which vascular lysis was established” value was 17.
